Measured values taken from article PMC9810167, “Novel dual LSD1/HDAC6 inhibitor for the treatment of cancer” (PLOS ONE, 2023).
Like-named read-outs stand apart in the source and are kept apart here.

What was measured:
HEL 92.1.7 = experiment: Cell proliferation assay (Alamar Blue); type: cell-based, human; conditions: for EC50: Homo sapiens
Procedure: Cells were seeded in NUNC 96-well tissue culture plates (Life Technologies) in […] culture medium and incubated at 37°C/ 5% CO2 to adhere to plastic for 18–24 h. […] One set of plates (designated for the 144 h read out) were centrifuged at low speed for 30 seconds, and respective compounds were replenished in fresh media and incubated for another 68–72 h at 37°C/ 5% CO2. […] The inhibition curve was then fitted by plotting % inhibition against log concentration in GraphPad Prism 5.0 (GraphPad Software, Inc.) and the GI50 value of compound was determined. Data are representative of at least two independent experiments.

MM1.S xenograft = experiment: MM1.S multiple myeloma xenograft model; type: in vivo; conditions: single agents (Bortezomib 0.5 mg/kg IP BIW; Pomalidomide 2.5 mg/kg PO 5x/week)
class I HDACs = system: class I HDACs; design: method as in PMID 22262760; conditions: read-out: potency on class I HDACs; cited from earlier work

With `N[C@H]1CC[C@H](N[C@@H]2C[C@H]2c2ccccc2)CC1` [Iadademstat] the “anti-proliferative EC50, 72 h” value (HEL 92.1.7; HEL92.1.7, 3 days (72 h) of incubation) was “did not show any measurable anti-proliferative activity” and the “cell growth inhibition reached (plateau)” value (HEL 92.1.7; HEL92.1.7, 6 days of incubation, up to 10 μM) was 50–60%.

In the case of `Nc1cccc2c1C(=O)N(C1CCC(=O)NC1=O)C2=O` (stereo not drawn) [Pomalidomide, reference compound], the tolerability (MM1.S xenograft) is reported as “well tolerated”.

For `O=C(CCCCCCNC(=O)c1cnc(N(c2ccccc2)c2ccccc2)nc1)NO` [Ricolinostat], the IC50 (class I HDACs) is given as roughly 0.05 µM, the EC50 (HEL 92.1.7; HEL 92.1.7, read-out: anti-proliferative EC50, HEL92.1.7, 3 days (72 h) of incubation) is given as 4.4 µM and the EC50 (HEL 92.1.7; HEL 92.1.7, Leukemia, 144 h, read-out: EC50, 144hr) is given as 3.7 µM.
